Measured values from patent US20090030034A1, “USE OF FGF INHIBITING SUBSTITUTED 1,2,3 INDOLIZINE DERIVATIVES IN THE PREPARATION OF MEDICAMENTS WHICH CAN BE USED TO TREAT DISEASES LINKED TO PATHOLOGICAL CHOROIDAL ANGIOGENESIS” (SANOFI-AVENTIS, priority 2004, published 2009).

System: laser-induced choroidal neovascularization
Experiment: Laser induction of choroidal neovascularization in mice, oral treatment
Format: in vivo, C57BI6 mice
Settings: 30 mg/kg/day orally during the last 7 days, day 14 after induction
Description: C57BI6 mice were used in these experiments. A model of laser-induced choroidal neovascularization (4 impacts per eye around the papilla) was applied to the animals as described by Tobe et al. Am. J. Pathol., 1998).
On day 14 after the induction and after monitoring by angiography, which makes it possible to estimate the percentage of lesions developing neovascularization, the animals are sacrificed and the eyeballs are enucleated for histological analysis. The mice are treated orally with one of the compounds of formula (I) during the last 7 days. The dose chosen for the monohydrate of the sodium salt of 2-amino-5-[(1-methoxy-2-methylindolizin-3-yl)carbonyl]benzoic acid is 30 mg/kg/day. The vehicle used is a 0.6% solution of methylcellulose in water.
Four mice are used for the control group and six mice for the treated group.
The size of the neovascular reaction is estimated from frozen sections by morphometric evaluations of the thickness using a computerized image analysis system. […]
Estimation is carried out by measuring the B/C ratio between, on the one hand, the EPR and the peak of the neovascular reaction (“B”), and, on the other hand, the thickness of the adjacent intact choroidal layer (“C”). This quantifying system was preferred to measuring surface areas of lesions as it is independent of the orientation of the histological sections.

In the case of `COc1c(C)c(C(=O)c2ccc(N)c(C(=O)O)c2)n2ccccc12` [2-amino-5-[(1-methoxy-2-methylindolizin-3-yl)carbonyl]benzoic acid], the “histological analysis and anti-CD31 immunohistochemistry of the laser impact sites” value is reported as “only a moderate thickening of the choriocapillary where the impacts occurred, without obvious sign of neovascularization” and the “reduction of the laser-induced neovascular reaction, quantified by the B/C ratio, in comparison with the control mice” value (frozen sections, morphometric thickness, p<0.001) is reported as about 50%.
